Assay: Double CuAAC of unprotected bis-azido peptide with triethynylphosphine oxide (1.2 eq), CuBr 10 eq, THPTA 20 eq; two-component cyclisation to ethynyl-ditriazolyl-phosphine oxide (EDPO) cyclic peptide; forms two 1,4-triazoles
Conditions: the molecule shown is the open-chain precursor, NaOAc buffer (100 mM, pH 5)/MeCN 20%, ~2% DMSO, 1.0 mM, 25.0 °C, 0.083 h

[N-]=[N+]=NCCCC[C@H](NC(=O)[C@H](Cc1ccc(O)cc1)NC(=O)[C@H](CC(=O)O)NC(=O)CNC(=O)[C@H](CCCNC(=N)N)NC(=O)[C@H](CCCCN)NC(=O)CN=[N+]=[N-])C(N)=O [N3-Gly(azidoacetyl)-Lys-Arg-Gly-Asp-Tyr-Lys(N3)-NH2]
ring closure, isolated yield (30-membered ring): 41%

[N-]=[N+]=NCCCC[C@H](NC(=O)[C@@H](CCCNC(=N)N)NC(=O)[C@H](CCCNC(=N)N)NC(=O)[C@@H](CCCCN)NC(=O)[C@H](CCCCN)NC(=O)[C@@H](CCCNC(=N)N)NC(=O)CNC(=O)[C@@H](CCCNC(=N)N)NC(=O)[C@H](CCCNC(=N)N)NC(=O)[C@@H](CCCNC(=N)N)NC(=O)[C@@H](N)CCCCN=[N+]=[N-])C(N)=O
ring closure, isolated yield (46-membered ring): 39%

[N-]=[N+]=NCCCC[C@H](NC(=O)CN)C(=O)N[C@@H](CCCNC(=N)N)C(=O)N[C@@H](CCCNC(=N)N)C(=O)N[C@@H](CCCNC(=N)N)C(=O)N[C@@H](CCCNC(=N)N)C(=O)N[C@@H](CCCNC(=N)N)C(=O)N[C@@H](CCCNC(=N)N)C(=O)N[C@@H](CCCNC(=N)N)C(=O)N[C@@H](CCCNC(=N)N)C(=O)N[C@@H](CCCCN=[N+]=[N-])C(=O)NCC(N)=O
ring closure, isolated yield (43-membered ring): 27%

[N-]=[N+]=NCCCC[C@H](NC(=O)CN)C(=O)N[C@@H](CCCNC(=N)N)C(=O)N[C@@H](CCCNC(=N)N)C(=O)N[C@@H](CCCNC(=N)N)C(=O)N[C@@H](CCCNC(=N)N)C(=O)N[C@@H](CCCNC(=N)N)C(=O)N[C@@H](CCCNC(=N)N)C(=O)N[C@@H](CCCNC(=N)N)C(=O)N[C@@H](CCCNC(=N)N)C(=O)N[C@@H](CCCNC(=N)N)C(=O)N[C@@H](CCCNC(=N)N)C(=O)N[C@@H](CCCCN=[N+]=[N-])C(=O)NCC(N)=O
ring closure, isolated yield (49-membered ring): 18%

CC(=O)N[C@@H](CCC(=O)O)C(=O)N[C@H](C(=O)N[C@@H](Cc1ccccc1)C(=O)N[C@@H](CCCCN=[N+]=[N-])C(=O)N[C@@H](CC(=O)O)C(=O)N[C@@H](CC(C)C)C(=O)N[C@@H](Cc1c[nH]c2ccccc12)C(=O)N[C@@H](CCCNC(=N)N)C(=O)N[C@@H](CC(C)C)C(=O)N[C@@H](CC(C)C)C(=O)N[C@@H](CCCCN=[N+]=[N-])C(=O)N[C@@H](CCC(=O)O)C(=O)N[C@@H](CC(N)=O)C(N)=O)[C@@H](C)O
ring closure, isolated yield (37-membered ring): 24%

CC(C)C[C@H](NC(=O)CN=[N+]=[N-])C(=O)N[C@@H](Cc1ccc(O)cc1)C(=O)N[C@@H](CCCNC(=N)N)C(=O)N[C@@H](C)C(=O)N[C@@H](CCCCN=[N+]=[N-])C(N)=O [N3-Gly(azidoacetyl)-Leu-Tyr-Arg-Ala-Lys(N3)-NH2]
ring closure, isolated yield (27-membered ring): 39%

From PMC12435405
